Data: article PMC10373461, “Discovery of a Hidden Trypanosoma cruzi Spermidine Synthase Binding Site and Inhibitors through In Silico, In Vitro, and X-ray Crystallography” (ACS Omega, 2023)

How the values were obtained:
[1] = biological target: T1, Trypanosoma cruzi spermidine synthase (TcSpdSyn) (Trypanosoma cruzi, UniProt Q4DA73); assay: X-ray co-crystal structure; SSAT1-coupled enzyme inhibition assay; format: biochemical
T1 construct: gene Tc00.1047053510339.50
T1 sequence (Q4DA73 1-296): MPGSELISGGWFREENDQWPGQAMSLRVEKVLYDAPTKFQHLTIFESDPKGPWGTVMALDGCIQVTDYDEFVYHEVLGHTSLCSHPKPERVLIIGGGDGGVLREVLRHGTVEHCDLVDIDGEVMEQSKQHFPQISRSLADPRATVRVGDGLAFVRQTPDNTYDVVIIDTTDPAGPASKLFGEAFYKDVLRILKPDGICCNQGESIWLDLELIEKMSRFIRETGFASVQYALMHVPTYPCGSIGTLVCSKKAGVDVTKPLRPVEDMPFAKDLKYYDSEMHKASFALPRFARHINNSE

[2] = biological target: T1, Trypanosoma cruzi spermidine synthase (TcSpdSyn); assay: X-ray co-crystal structure; SSAT1-coupled enzyme inhibition assay (hydrochloride salt); format: biochemical

Structure (SMILES)	IC50 [1] [µM]	IC50 [2] [µM]
COc1ccc(C2=N[C@H](C)CN2)c(O)c1 [compound 1]	82.3	
COc1ccc(Nc2ccnc3ccccc23)cc1 [compound 2]		43.4
